This note sets out measurements from PubChem BioAssay AID179 (DTP/NCI, 2004).

In the experiment the test system is CEM cells HIV-1 protection, formazan growth assay. The experiment in a line: NCI AIDS Antiviral Assay. Particulars: for IC50: measured here: growth of uninfected CEM cells. A digest of the protocol: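 Protection of CEM cells against HIV-1 was scored from cell growth (soluble formazan) across five concentrations, with parallel uninfected cells. Lack of protection may reflect toxicity.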

Activity calls are given as the source filed them.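 The calls were made as follows: active = compounds giving half or more protection of infected cells from virus-caused growth loss, again on retest; inactive = the rest.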 Where a SMILES comes first, the peptide text is derived from it. The star is where a group is joined. Cbz = O=C(OCc1ccccc1)*; NHNH2 = NN*

The term EC50 denotes the concentration at which the effect is half-maximal. The term IC50 denotes the point on the concentration scale where inhibition reaches its midpoint. High values mean a need for much substance, low ones inhibition by little substance. With `C/C(=N/NC(=O)C[N+](C)(C)C)C(CN(C)C)C(=O)Nc1ccccc1` (stereo not drawn), the EC50 was greater than 13.5 µM and the IC50 is greater than 13.5 µM. Consider `CCCCCC=C(c1cc(Br)c(OC)c(Br)c1)c1cc(Br)c(OC)c(Br)c1`, for which the EC50 is greater than 151 µM and the IC50 was greater than 151 µM.

On to `CC(C)=CCC1(O)C(=O)c2ccccc2C1(O)C(=O)O` (stereo not drawn), for which the EC50 is greater than 200 µM and the IC50 is greater than 200 µM.

Take `O=c1c(-c2nn[nH]n2)cnc2sc3cc(Cl)ccc3n12`: the EC50 is greater than 200 µM and the concentration for half-maximal inhibition (IC50) amounted to 89.1 µM. Taken in the same sequence, the figures for `O=C1CC2CCC(C1)S2` were greater than 200 µM and greater than 200 µM.

Consider `CCCNCC(O)COc1ccc2c3c(c(=O)oc2c1)CCC3` (stereo not drawn), for which the EC50 was greater than 200 µM and the IC50 amounted to 87.1 µM.

Take `CN1C(=O)C(O)Nc2ncncc21` (stereo not drawn): the EC50 was greater than 200 µM and the IC50 is 32.4 µM. For the compound `CN(C)c1ccc(/C=C(\NC(=O)c2ccccc2)c2nc3ccc4c(c3[nH]2)C(=O)c2ccccc2C4=O)cc1`, the result was inactive. As for `CCN(CC)c1oc(N(CC)CC)c(C(=O)Nc2ccccn2)c(=O)c1C(C)=O`, the EC50 is greater than 631 µM and the 50% inhibitory concentration (IC50) is 251 µM. Taken in the same sequence, the figures for `COc1ccc(NS(=O)CCCc2ccccc2)cc1` (stereo not drawn) were greater than 200 µM and 16.6 µM.

As to `COc1cc2c3c(ccc2cc1O)-c1cc(OC)c(OC)cc1C[N+]3(C)C`, the EC50 was greater than 4.47 µM and the half-maximal inhibitory concentration (IC50) was greater than 4.47 µM. `COc1ccc2c(C)cc(N/N=C/c3sccc3C)nc2c1`: the EC50 is greater than 200 µM and the 50% inhibitory concentration (IC50) was determined as 8.32 µM. Taken in the same sequence, the figures for `O=C(/C=C/c1ccccc1O)c1ccccc1Cl` were greater than 38.9 µM and greater than 38.9 µM. For `CC1(C)CNCC2(C)OCCCOC3(C)CNCC(C)(C)NC(=O)C(C)(CNCC(C)(C)NC3=O)OCCCOC(C)(CNCC(C)(C)NC2=O)C(=O)N1`, in that order: greater than 200 µM and greater than 200 µM. Turning to `COc1cccc(/C=C(\C#N)C(=O)c2ccccc2)c1`, the EC50 was greater than 97.7 µM and the IC50 is greater than 97.7 µM. In the case of `C=CCN=C1NC(=O)C(CC(=O)Nc2ccc([N+](=O)[O-])cc2[N+](=O)[O-])S1` (stereo not drawn), the EC50 was greater than 13.8 µM and the IC50 is greater than 13.8 µM. Regarding `CC1=Nc2ccccc2NC2(C1)C(C1COC(C)(C)O1)OC1OC(C)(C)OC12` (stereo not drawn), the outcome was inactive. As to `CCOC1(O)C(=O)c2ccccc2OC1(OCC)c1ccccc1` (stereo not drawn), the EC50 was greater than 200 µM and the IC50 worked out at 26.9 µM. In the case of `O=C(CCC(=O)Nc1ccc(Cl)c(Cl)c1)CC(=O)c1ccc2ccccc2c1`, the result was inactive. Take `Cc1cccc(Nc2nc(N)nc(N)c2N=O)c1`: the EC50 was greater than 200 µM and the IC50 worked out at 20.9 µM.

In turn, `COc1cc2c(c(OC)c1OC)-c1ccc(OC)c(=O)cc1C(NC1=C(Cl)C(=O)c3ccccc3C1=O)CC2` (stereo not drawn) came in with an EC50 greater than 174 µM and an IC50 of 0.0562 µM.

As for `Cc1ccc(C(CC(=O)C(C)(C)CN2CCCCC2)SCCS(=O)(=O)O)cc1` (stereo not drawn), the EC50 was greater than 200 µM and the IC50 was 3.63 µM. Consider `COc1ccc(NC(=O)CC(=O)N/N=C(\C)c2cc3ccccc3oc2=O)cc1`, for which the EC50 is greater than 200 µM and the IC50 was 102 µM. Taken in the same sequence, the figures for `O=C(c1ccc2c(c1)OCO2)N1OC2C=CC1CC2` (stereo not drawn) were greater than 955 µM and 513 µM. Taken in the same sequence, the figures for `CNC(=O)N(CCC#N)CCN(C(=O)N(C)C)c1ccccc1` were greater than 200 µM and greater than 200 µM. On to `CCCCc1ccc(N2C(=O)c3cc([N+](=O)[O-])cnc3S2(=O)=O)cc1`, for which the EC50 was greater than 2 µM and the IC50 was determined as 0.479 µM.

In the case of `O=C1NC(=O)C(=Cc2ccccc2[N+](=O)[O-])C(=O)N1`, the result was inactive. For `C=C(CCOC)CCC1CCCCC(=C)[C@H]1OC(C)=O` (stereo partly drawn), the EC50 is greater than 200 µM and the IC50 was determined as 107 µM. Taken in the same sequence, the figures for `CN1N=C(c2ccncc2)OC1c1ccc(C(F)(F)F)cc1` (stereo not drawn) were greater than 200 µM and 132 µM. On to `CCCCCCCCC1=C(OC)C(=O)c2cccnc2C1=O`, for which the result was inactive. Consider `O=C(N=c1ccc2nc(=O)[nH]n(O)c-2c1)C(F)(F)F`, for which the EC50 was greater than 200 µM and the half-inhibitory concentration (IC50) came out at 186 µM. Taken in the same sequence, the figures for `Cc1noc2c1N=C(c1cccs1)CC(c1c(Cl)cccc1Cl)C2` (stereo not drawn) were greater than 19.1 µM and greater than 19.1 µM.

For the compound `CCOC(=O)c1c(-c2ccc(OC)cc2)c(C#N)c(=S)n(C2OC(CO)C(O)C(O)C2O)c1-c1ccccc1` (stereo not drawn), the EC50 is greater than 200 µM and the IC50 came to 34.7 µM. Taken in the same sequence, the figures for `O=c1[nH]c(-c2ccc(-c3nc4cc([N+](=O)[O-])ccc4c(=O)[nH]3)cc2)nc2cc([N+](=O)[O-])ccc12` were greater than 7.94 µM and greater than 7.94 µM. Taken in the same sequence, the figures for `CCOC(=O)C(c1ccsc1)P(=O)(OCC)OCC` (stereo not drawn) were greater than 813 µM and 28.2 µM. For `C1=C(c2ccccc2)C(N2CCOCC2)Oc2ccccc21` (stereo not drawn), in that order: greater than 200 µM and 89.1 µM. For `Cc1noc2c1NC(=O)OCC2`, the EC50 was 11 µM and the IC50 turned out to be 490 µM. Taken in the same sequence, the figures for `CCOC(=O)c1ccc(CS(=O)(=O)c2ccc(Cl)cc2)cc1` were greater than 55 µM and greater than 55 µM. Taken in the same sequence, the figures for `NCCCN1CCN(CCCNc2ccc3nnn4c5ccccc5c(=O)c2c34)CC1` were greater than 100 µM and 5.89 µM. Taken in the same sequence, the figures for `Cc1nn(-c2cc(Cl)ccc2[N+](=O)[O-])c(C)c1Cl` were greater than 200 µM and 166 µM. As for `NC(=O)c1ccccc1NC(=O)C(=O)C(C(=O)c1ccc2ccccc2c1)C1OC(=O)c2ccccc21` (stereo not drawn), the EC50 was greater than 52.5 µM and the half-maximal inhibitory concentration (IC50) is 15.8 µM. Take `O=C(O)/C(Cl)=C(/Cl)C(=O)Nc1cc(Cl)ccc1Cl`: the result was inactive.

For `CCOC(=O)C1CCCc2sc(N)c(C#N)c21` (stereo not drawn), the EC50 was greater than 200 µM and the IC50 is greater than 200 µM.

As for `O=C(NCCc1ccccc1)c1c(O)c2ccccc2[nH]c1=O`, the EC50 was greater than 200 µM and the half-inhibitory concentration (IC50) was greater than 200 µM. For the compound `CCOC(=O)CCC(NC(=O)OCc1ccccc1)C(=O)NC(CCC(=O)OCC)C(=O)NN` (stereo not drawn) (Cbz-Glu(OEt)-Glu(OEt)-NHNH2; configuration not given here), the EC50 is greater than 200 µM and the 50% inhibitory concentration (IC50) is greater than 200 µM. As to `O=C(O)c1cc(O)c(O)c(O)c1`, the EC50 was greater than 200 µM and the IC50 was 11 µM. Taken in the same sequence, the figures for `c1ccc(Nc2nnc(-c3nsc4ccccc34)o2)cc1` were greater than 24.5 µM and greater than 24.5 µM.

`Oc1ccccc1C1SCc2nc3ccccc3n21` (stereo not drawn): the EC50 is greater than 26.9 µM and the IC50 is greater than 26.9 µM.

Regarding `Nc1cc(C(=O)O)ccc1SSc1ccc(C(=O)O)cc1N`, the 50% effective concentration (EC50) is 93.3 µM and the 50% inhibitory concentration (IC50) is greater than 200 µM.

For the compound `N#C/C=C/c1ccc2ccccc2c1`, the EC50 was greater than 40.7 µM and the IC50 was greater than 40.7 µM. As to `CC(C)(C#N)C(C)(C)SSC(C)(C)C(C)(C)C#N`, the EC50 is greater than 178 µM and the half-inhibitory concentration (IC50) was greater than 178 µM. As to `Cc1ccc(-n2c(=O)c3nn4c(=O)n(-c5ccc(C)cc5)c(=O)c4nn3c2=O)cc1`, the EC50 is greater than 200 µM and the 50% inhibitory concentration (IC50) was greater than 200 µM. As to `CN(C(=O)C12C3C4C1C1C2C3C41C(O)C(C)(C)C)C(C)(C)C` (stereo not drawn), the EC50 is greater than 117 µM and the IC50 is greater than 117 µM.

Take `N#C/C(=C\c1ccc(-c2ccccc2)cc1)c1ccc(Cl)cc1`: the EC50 was greater than 100 µM and the half-maximal inhibitory concentration (IC50) is greater than 100 µM.

For the compound `Cc1cc2[n-]c1/C=c1\[n-]/c(c(CCC(=O)O)c1C)=C\c1[n-]c(c(C)c1CCC(=O)O)/C=c1/cc(C)/c([n-]1)=C/2.[Co]`, the EC50 was greater than 24 µM and the IC50 is greater than 24 µM.

With `Nc1cc(N)[nH]c(=S)n1`, the outcome was inactive.

In the case of `COc1ccc(/C(C)=N/NC(=O)c2ccncc2)cc1OC`, the EC50 was greater than 437 µM and the concentration for half-maximal inhibition (IC50) was greater than 437 µM. On to `C/C(=C/C(=O)O)CC/C=C(/C)C(=O)O`, for which the EC50 is greater than 479 µM and the half-inhibitory concentration (IC50) is greater than 479 µM. Regarding `O=c1cc2cc(O)[nH]c(=O)c2c(O)[nH]1`, the outcome was inactive. Turning to `FC(F)(F)C(F)(F)/C(=N/Nc1ccccc1)SS/C(=N\Nc1ccccc1)C(F)(F)C(F)(F)F`, the EC50 is greater than 200 µM and the half-inhibitory concentration (IC50) turned out to be 3.16 µM. For the compound `COC(=O)CCC(=O)CC1CC(=O)C2CCCN12` (stereo not drawn), the outcome was inactive. Regarding `COc1cc(NC=O)c2c(c1)SC(c1ccccc1)C(=O)N2` (stereo not drawn), the EC50 was greater than 200 µM and the IC50 was 56.2 µM. As to `CN(c1ccccc1)c1c(-c2ccccc2)c(=O)oc2c1ccc1occc12`, the outcome was inactive. Turning to `O=C(OCc1ccccc1)C(Cc1ccccc1)N(Cc1ccccc1)Cc1ccccc1` (stereo not drawn), the EC50 was greater than 200 µM and the IC50 was greater than 200 µM. As for `CSc1nc(C)cc(N(C)c2ccccc2)n1`, the EC50 was greater than 200 µM and the IC50 amounted to 32.4 µM. For `O=C1C(=O)C(Br)(c2ccccc2)C(=O)C1c1ccccc1` (stereo not drawn), in that order: greater than 200 µM and greater than 200 µM. For `Cc1ccc2oc(=O)c(C(=O)Nc3nc(C45CC6CC(CC(C6)C4)C5)cs3)cc2c1`, in that order: greater than 100 µM and greater than 100 µM.

Consider `CCOC(=O)/C(=C\c1ccc(C#N)cc1)C(C)=O`, for which the EC50 was greater than 148 µM and the concentration for half-maximal inhibition (IC50) stood at 77.6 µM. Taken in the same sequence, the figures for `COc1ccc(/C=C2\CNC/C(=C\c3ccc(OC)cc3)C2=O)cc1` were greater than 7.41 µM and greater than 7.41 µM. For `Cc1cc(Cl)ccc1NC(=O)CC1SC(=NC(=O)c2ccccc2Cl)NC1=O` (stereo not drawn), in that order: greater than 16.6 µM and greater than 16.6 µM.

For `Nc1nc(-c2ccccc2)nc(N)c1N=O`, the EC50 was greater than 200 µM and the half-inhibitory concentration (IC50) turned out to be 2.57 µM. Taken in the same sequence, the figures for `CC(O)C[P+](c1ccccc1)(c1ccccc1)c1ccccc1` (stereo not drawn) were greater than 200 µM and 15.8 µM. Taken in the same sequence, the figures for `CCOP(C)(=O)C(Nc1ccc(F)cc1)c1ccc(F)cc1` (stereo not drawn) were greater than 200 µM and 166 µM. For `Cc1c2ccccc2nc(CN2CCCCC2)[n+]1[O-]`, in that order: greater than 200 µM and greater than 200 µM.
